Assay [1] relates to MGC-803. In words: Antiproliferative activity against human MGC-803 cells assessed as inhibition of cell proliferation incubated for 48 hrs by MTT assay. Conditions: MGC-803, 48 h; call rule not given here. It counts as functional, cell-based. In general terms: Tetrazolium assays rely on reduction of a dye to a coloured formazan, in cell work by metabolically active cells.
Assay [2] deals with HCT-116. In words: Antiproliferative activity against human HCT-116 cells assessed as inhibition of cell proliferation incubated for 48 hrs by MTT assay. The assay is classed as functional, cell-based. Conditions: HCT-116, 48 h.
The subject of assay [3] is KYSE-450. Nature of the assay: Antiproliferative activity against human KYSE-450 cells assessed as inhibition of cell proliferation incubated for 48 hrs by MTT assay. It counts as functional, cell-based. The conditions noted are these: KYSE-450, 48 h.
In assay [4] the target is Tubulin (Homo sapiens) (UniProt P68371+Q9H4B7+P0DPH7+P68366+Q13509+Q71U36+P04350+Q3ZCM7+P07437+P68363+Q9BQE3+Q6PEY2+Q13885+Q9BVA1+Q9BUF5). Nature of the assay: Inhibition of tubulin (unknown origin) polymerization assessed as decrease in fluorescence intensity at 3 micromol/L in the presence of GTP by fluorescence microplate reader. Conditions: dose 3.0 µmol/L. It counts as protein-complex assay.

Assay [5] relates to MGC-803. Nature of the assay: Antitumor activity against human MGC-803 cells xenografted in female BALB/c-nu nude mouse assessed as tumor inhibition rate at 20 mg/kg, ip administrated every other day for 11 times and measured after 21 days relative to control. It counts as functional. Conditions: MGC-803, 504 h, time 21 day, read-out: TGI.

Bounds are passed on as bounds.

Experimental findings from ChEMBL document CHEMBL6103573, “Discovery of novel thienopyridine indole derivatives as inhibitors of tubulin polymerization targeting the colchicine-binding site with potent anticancer activities” (Eur J Med Chem, 2025) are described below.

Broadly, the IC50 is the concentration that gives 50% inhibition.

On to `COC1CCN(c2nc(N(C)c3ccc4c(ccn4C)c3)c3ccsc3n2)CC1`, for which the results for the IC50 in assay [1], in assay [2] and in assay [3] were 6.81 nM, 6.77 nM and 8.33 nM, respectively.
On to `CN(c1ccc2c(ccn2C)c1)c1nc(Cl)nc2sccc12`, for which the IC50 in assay [1] stood at 2.07 nM; in assay [2], 2.79 nM; in assay [3] it was 3.28 nM.
Taken in the same sequence, the figures for `CN(c1ccc2c(ccn2C)c1)c1nc(N2CCC(Cl)CC2)nc2sccc12` were 18.3 nM, 29.3 nM and 25.6 nM.
Take `CN(c1ccc2c(ccn2C)c1)c1nc(N2CCC(F)CC2)nc2sccc12`: the IC50 is 12.9 nM in assay [1], 17.7 nM in assay [2] and 20.7 nM in assay [3].
Taken in the same sequence, the figures for `CN(c1ccc2c(ccn2C)c1)c1nc(N2CCSCC2)nc2sccc12` were 113 nM, 129 nM and 289 nM.
Taken in the same sequence, the figures for `CC(C)(C)OC(=O)n1ccc2cc(Nc3nc(Cl)nc4sccc34)ccc21` were greater than 5000 nM, greater than 5000 nM and greater than 5000 nM.
In the same order, the values of `CCn1ccc2cc(N(C)c3nc(Cl)nc4sccc34)ccc21` are 40.2 nM, 54.2 nM and 39.8 nM.
As to `CCN(c1ccc2c(ccn2C)c1)c1nc(Cl)nc2sccc12`, the IC50 in assay [1] was 3.67 nM; in assay [2] it was 8.28 nM; in assay [3], 7.77 nM.
Regarding `Cn1ccc2cc(Nc3nc(Cl)nc4ccsc34)ccc21`, the IC50 in assay [1], in assay [2] and in assay [3] was greater than 5000 nM throughout.
As for `CN(c1ccc2c(ccn2C)c1)c1nc(N2CCC(C(=O)OC(C)(C)C)CC2)nc2sccc12`, the IC50 in assay [1] turned out to be 337 nM; in assay [2], 388 nM; in assay [3], 422 nM.
In the case of `CC(=O)O[C@H]1C(=O)[C@@]2(C)[C@H]([C@H](OC(=O)c3ccccc3)[C@]3(O)C[C@H](OC(=O)[C@H](O)[C@@H](NC(=O)c4ccccc4)c4ccccc4)C(C)=C1C3(C)C)[C@]1(OC(C)=O)CO[C@@H]1C[C@@H]2O`, the inhibition entry in assay [4] is “Not active; Increase In Fluorescence Intensity Observed”.
Consider `COc1cc2c(c(OC)c1OC)-c1ccc(OC)c(=O)cc1[C@@H](NC(C)=O)CC2` [COLCHICINE], for which the figures for the IC50 in assay [1], in assay [2] and in assay [3] were 44.1 nM, 49.1 nM and 58.7 nM, respectively.
On to `CN(c1ccc2c(ccn2C)c1)c1ncnc2sccc12`, for which the half-maximal inhibitory concentration (IC50) in assay [1] was determined as 5.32 nM; in assay [2], 5.12 nM; in assay [3], 25.1 nM.
Consider `CN(c1ccc2[nH]ccc2c1)c1nc(Cl)nc2sccc12`, for which the IC50 in assay [1] was found to be 4.23 nM; in assay [2], 7.28 nM; in assay [3], 5.12 nM.
Take `CC(=O)N1CCN(c2nc(N(C)c3ccc4c(ccn4C)c3)c3ccsc3n2)CC1`: the IC50 in assay [1] is 308 nM; in assay [2], 487 nM; in assay [3], 413 nM.
Consider `CN(c1ccc2c(ccn2C)c1)c1nc(N2CCC(O)CC2)nc2sccc12`, for which the IC50 was 20.6 nM in assay [1], 19.6 nM in assay [2] and 30.1 nM in assay [3].
In the same order, the values of `CN1CCN(c2nc(N(C)c3ccc4c(ccn4C)c3)c3ccsc3n2)CC1` are 219 nM, 441 nM and 389 nM.
On to `Cn1ccc2cc(Nc3nc(Cl)nc4sccc34)ccc21`, for which the IC50 in assay [1], in assay [2] and in assay [3] was greater than 5000 nM throughout.
For `CN(c1ccc2c(ccn2C)c1)c1nc(N2CCC2)nc2sccc12`, the IC50 worked out at 12.3 nM in assay [1], 18.2 nM in assay [2] and 16.1 nM in assay [3].
In the same order, the values of `CN(c1ccc2c(ccn2C)c1)c1nc(N2CCOCC2)nc2sccc12` are 70.7 nM, 60.2 nM and 56.4 nM.
Taken in the same sequence, the figures for `CCCN(c1ccc2c(ccn2C)c1)c1nc(Cl)nc2sccc12` were 89.2 nM, 125 nM and 122 nM.
On to `COc1ccc(/C=C\c2cc(OC)c(OC)c(OC)c2)cc1O` [COMBRETASTATIN A4], for which, in assay [5], the inhibition in vivo at 20 mg/kg turned out to be 27.1%. The IC50 is 6.29 nM in assay [1], 7.38 nM in assay [2] and 5.11 nM in assay [3].
As to `CN(c1ccc2c(ccn2Cc2ccccc2)c1)c1nc(Cl)nc2sccc12`, the values for the IC50 in assay [1], in assay [2] and in assay [3] were 893 nM, 831 nM and 921 nM, respectively.
In the same order, the values of `CN(c1ccc2c(ccn2C)c1)c1nc(N2CCN(C(=O)OC(C)(C)C)CC2)nc2sccc12` are 589 nM, 682 nM and 597 nM.
Take `CCN1CCN(c2nc(N(C)c3ccc4c(ccn4C)c3)c3ccsc3n2)CC1`: the IC50 in assay [1] was determined as 288 nM; in assay [2], 406 nM; in assay [3], 402 nM.
Taken in the same sequence, the figures for `CN(c1ccc2c(ccn2C)c1)c1nc(N2CCCCC2)nc2sccc12` were 14.8 nM, 18.2 nM and 13.2 nM.
In the same order, the values of `CC1CCN(c2nc(N(C)c3ccc4c(ccn4C)c3)c3ccsc3n2)CC1` are 8.12 nM, 6.21 nM and 9.17 nM.
As to `CN(c1ccc2c(ccn2C)c1)c1ncnc2ccsc12`, the IC50 came to 8.94 nM in assay [1], 17.6 nM in assay [2] and 34.6 nM in assay [3].
Taken in the same sequence, the figures for `CN(c1ccc2c(ccn2C(=O)OC(C)(C)C)c1)c1nc(Cl)nc2sccc12` were 253 nM, 282 nM and 152 nM.
Regarding `CN(c1ccc2c(ccn2C)c1)c1nc(Cl)nc2ccsc12`, the IC50 in assay [1] turned out to be 4.18 nM; in assay [2], 3.17 nM; in assay [3], 16.1 nM.
For `Cn1ccc2cc(Nc3ncnc4sccc34)ccc21`, the IC50 in assay [1], in assay [2] and in assay [3] was greater than 5000 nM each time.
On to `Cn1ccc2cc(Nc3ncnc4ccsc34)ccc21`, for which the IC50 in assay [1], in assay [2] and in assay [3] was greater than 5000 nM in each case.
